From PubChem BioAssay AID298 (DTP/NCI, 2004)
Several values for one entry are separate records, joined by “and”; a condition that tells them apart may be missing. Equal entries are not always repeated. Inconclusive results are not listed.

System: MX-1 breast xenograft, intrarenal, nude mice, tumor weight
Assay: NCI In Vivo Anticancer Drug Screen. Data for tumor model Human Mammary Carcinoma MX-1 Xenograft (intrarenal inoculation) in NU/NU BALB/C (nude) mice
Conditions: endpoint: mean tumor weight change, higher = larger tumour
In short: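 Efficacy in vivo: tumor measurement or survival of treated animals divided by that of vehicle-dosed controls.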

[1] = dose: 150.0 mg/kg/injection, schedule: Q04DX003 (sc), vehicle: saline
[2] = dose: 300.0 mg/kg/injection, schedule: Q04DX003 (sc), vehicle: saline
[3] = dose: 75.0 mg/kg/injection, schedule: Q04DX003 (ip), vehicle: saline with Tween-80
[4] = dose: 150.0 mg/kg/injection, schedule: Q04DX003 (ip), vehicle: saline with Tween-80
[5] = dose: 300.0 mg/kg/injection, schedule: Q04DX003 (ip), vehicle: saline with Tween-80
[6] = dose: 600.0 mg/kg/injection, schedule: Q04DX003 (ip), vehicle: saline with Tween-80
[7] = dose: 1200.0 mg/kg/injection, schedule: Q04DX003 (ip), vehicle: saline with Tween-80
[8] = dose: 300.0 mg/kg/injection, schedule: Q04DX003 (sc), vehicle: saline with Tween-80
[9] = dose: 600.0 mg/kg/injection, schedule: Q04DX003 (sc), vehicle: saline with Tween-80
[10] = dose: 1200.0 mg/kg/injection, schedule: Q04DX003 (sc), vehicle: saline with Tween-80

CCOC(=O)C1=C(Nc2ccc(OC)cc2)C(N)=NC1=N
T/C (dose: 37.5 mg/kg/injection, schedule: Q04DX003 (ip), vehicle: suspension in saline): 76 % of control
T/C (dose: 75.0 mg/kg/injection, schedule: Q04DX003 (ip), vehicle: suspension in saline): 82 % of control
T/C (dose: 150.0 mg/kg/injection, schedule: Q04DX003 (ip), vehicle: suspension in saline): 79 % of control and 103 % of control
T/C (dose: 300.0 mg/kg/injection, schedule: Q04DX003 (ip), vehicle: suspension in saline): 47 % of control and 50 % of control
T/C (dose: 600.0 mg/kg/injection, schedule: Q04DX003 (ip), vehicle: suspension in saline): 32 % of control

CC(C)C(N)C(=O)Nc1nncs1 (stereo not drawn)
T/C [1]: 73 % of control
T/C [2]: 77 % of control
T/C (dose: 600.0 mg/kg/injection, schedule: Q04DX003 (sc), vehicle: saline): 86 % of control
T/C (dose: 1200.0 mg/kg/injection, schedule: Q04DX003 (sc), vehicle: saline): 46 % of control

Cc1cc2c(C(C)C)c(O)c(O)c(C=NCCO)c2c(O)c1-c1c(C)cc2c(C(C)C)c(O)c(O)c(C=NCCO)c2c1O
T/C [3]: 111 % of control
T/C [4]: 86 % of control
T/C [5]: 58 % of control
T/C [6]: 97 % of control
T/C [7]: 69 % of control

CC1=C(/C=C/C(C)=C/C=C/C(C)=C/C=O)C(C)(C)CCC1
T/C (dose: 150.0 mg/kg/injection, schedule: Q04DX003 (sc), vehicle: saline with Tween-80): 84 % of control
T/C [8]: 39 % of control
T/C [9]: 51 % of control
T/C [10]: 34 % of control

O=CC(NC(=O)N(CCCl)N=O)C(O)C(O)C(O)CO (stereo not drawn)
T/C (dose: 3.0 mg/kg/injection, schedule: Q01DX010 (sc), vehicle: Klucel (hydroxypropylcellulose) (HPC)): 59 % of control
T/C (dose: 6.0 mg/kg/injection, schedule: Q01DX010 (sc), vehicle: Klucel (hydroxypropylcellulose) (HPC)): 51 % of control

CCOC(=O)[C@]1(Br)CC[C@@]1(Br)C(=O)OCC
T/C [8]: 99 % of control
T/C [9]: 96 % of control
T/C [10]: 94 % of control

O=C1c2cccc(NCCCNCCO)c2C(=O)c2cccc(NCCCNCCO)c21
T/C (dose: 18.75 mg/kg/injection, schedule: Q04DX003 (ip), vehicle: acid diluted with saline): 89 % of control
T/C (dose: 37.5 mg/kg/injection, schedule: Q04DX003 (ip), vehicle: acid diluted with saline): 171 % of control

Nc1ccc(C(=O)Nc2ccccc2N)cc1
T/C (dose: 25.0 mg/kg/injection, schedule: Q01DX010 (ip), vehicle: saline with Tween-80): 91 % of control
T/C (dose: 50.0 mg/kg/injection, schedule: Q01DX010 (ip), vehicle: saline with Tween-80): 87 % of control
T/C (dose: 100.0 mg/kg/injection, schedule: Q01DX010 (ip), vehicle: saline with Tween-80): 84 % of control
T/C (dose: 200.0 mg/kg/injection, schedule: Q01DX010 (ip), vehicle: saline with Tween-80): 36 % of control

CC(NNC(=S)N(C)C1CCCCC1)c1cc2ccccc2cn1 (stereo not drawn)
T/C (dose: 150.0 mg/kg/injection, schedule: Q04DX003 (ip), vehicle: saline): 80 % of control

Nc1n[nH]c2ccccc12
T/C (dose: 300.0 mg/kg/injection, schedule: Q04DX003 (ip), vehicle: other): 93 % of control
T/C (dose: 600.0 mg/kg/injection, schedule: Q04DX003 (ip), vehicle: other): 108 % of control

Cc1ccc(C(=Nc2ccccc2)N=P(c2ccccc2)(c2ccccc2)c2ccccc2)cc1
T/C (dose: 50.0 mg/kg/injection, schedule: Q04DX003 (ip), vehicle: saline with Tween-80): 68 % of control
T/C (dose: 100.0 mg/kg/injection, schedule: Q04DX003 (ip), vehicle: saline with Tween-80): 45 % of control

CCOC(=O)Nc1cc2c(c(N)n1)N=C(c1ccccc1)CO2
T/C [4]: 73 % of control
T/C [5]: 80 % of control
T/C [6]: 51 % of control
T/C [7]: 68 % of control

CC1=CCCC2C1(C)CCC(C)C2(C)Cc1cc(O)ccc1O (stereo not drawn)
T/C (dose: 12.5 mg/kg/injection, schedule: Q04DX003 (ip), vehicle: Klucel (hydroxypropylcellulose) (HPC)): 84 % of control
T/C (dose: 25.0 mg/kg/injection, schedule: Q04DX003 (ip), vehicle: Klucel (hydroxypropylcellulose) (HPC)): 76 % of control
T/C (dose: 50.0 mg/kg/injection, schedule: Q04DX003 (ip), vehicle: Klucel (hydroxypropylcellulose) (HPC)): 86 % of control
T/C (dose: 100.0 mg/kg/injection, schedule: Q04DX003 (ip), vehicle: Klucel (hydroxypropylcellulose) (HPC)): 66 % of control

Oc1ccc(/C=N/N=C/c2ccc(O)c(O)c2)cc1O
T/C [3]: 68 % of control
T/C [4]: 46 % of control
T/C [5]: 78 % of control
T/C [7]: 82 % of control

[Cl][Hg][Cl]
T/C (dose: 5.0 mg/kg/injection, schedule: Q04DX003 (ip), vehicle: saline): 67 % of control

CC(C)CCC(=O)c1ccoc1
T/C (dose: 0.75 mg/kg/injection, schedule: Q01DX010 (ip), vehicle: saline with Tween-80): 101 % of control
T/C (dose: 1.5 mg/kg/injection, schedule: Q01DX010 (ip), vehicle: saline with Tween-80): 103 % of control
T/C (dose: 3.0 mg/kg/injection, schedule: Q01DX010 (ip), vehicle: saline with Tween-80): 84 % of control

C=C(OC)C(Nc1cc(OC)c(OC)cc1C(=O)OC1CC(O[C@@H]2C(=O)C(NC(=O)OC)=C3/C(=C\CSSSC)[C@]2(O)C#C/C=C\C#C[C@@H]3OC2OC(C)C(NOC3CC(O)C(SC)C(C)O3)C(O)C2OC2CC(OC)C(NCCC)CO2)OC(C)C1O)OC (stereo partly drawn)
T/C (dose: 0.31 micrograms/kg/injection, schedule: Q04DX003 (ip), vehicle: alcohol): 71 % of control
T/C (dose: 0.32 micrograms/kg/injection, schedule: Q04DX003 (ip), vehicle: saline + alcohol): 39 % of control
T/C (dose: 0.62 micrograms/kg/injection, schedule: Q04DX003 (ip), vehicle: alcohol): 68 % of control
T/C (dose: 0.64 micrograms/kg/injection, schedule: Q04DX003 (ip), vehicle: saline + alcohol): 17 % of control
T/C (dose: 1.25 micrograms/kg/injection, schedule: Q04DX003 (ip), vehicle: alcohol): 22 % of control
T/C (dose: 1.28 micrograms/kg/injection, schedule: Q04DX003 (ip), vehicle: saline + alcohol): 27 % of control
T/C (dose: 2.5 micrograms/kg/injection, schedule: Q04DX003 (ip), vehicle: alcohol): 26 % of control
T/C (dose: 2.56 micrograms/kg/injection, schedule: Q04DX003 (ip), vehicle: saline + alcohol): 13 % of control
T/C (dose: 5.0 micrograms/kg/injection, schedule: Q04DX003 (ip), vehicle: alcohol): 12 % of control

CC(C)CC(=O)NC(C(=O)NC(C(=O)NC(CC(C)C)C(O)CC(=O)NC(C)C(=O)NC(CC(C)C)C(O)CC(=O)O)C(C)C)C(C)C (stereo not drawn)
T/C (dose: 150.0 mg/kg/injection, schedule: Q04DX002 (ip), vehicle: Klucel (hydroxypropylcellulose) (HPC)): 47 % of control
T/C (dose: 150.0 mg/kg/injection, schedule: Q04DX003 (ip), vehicle: Klucel (hydroxypropylcellulose) (HPC)): 85 % of control
T/C (dose: 300.0 mg/kg/injection, schedule: Q04DX002 (ip), vehicle: Klucel (hydroxypropylcellulose) (HPC)): 57 % of control
T/C (dose: 600.0 mg/kg/injection, schedule: Q04DX002 (ip), vehicle: Klucel (hydroxypropylcellulose) (HPC)): 21 % of control

Oc1ccc(CCl)c2cccnc12
T/C (dose: 75.0 mg/kg/injection, schedule: Q04DX003 (sc), vehicle: saline): 120 % of control
T/C [1]: 99 % of control
T/C [2]: 87 % of control

COc1cc2c[n+](C)c3c(c2cc1OC)Cc1cc2c(cc1-3)OCO2
T/C [3]: 102 % of control
T/C [4]: 35 % of control

O=C(Nc1ccccc1CCl)Nc1ccccc1CCl
T/C [7]: 9 % of control and 12 % of control and 20 % of control

O=C/C(Cl)=C(/Cl)C(=O)O
T/C (dose: 10.0 mg/kg/injection, schedule: Q01DX010 (sc), vehicle: saline with Tween-80): 87 % of control
T/C (dose: 20.0 mg/kg/injection, schedule: Q01DX010 (sc), vehicle: saline with Tween-80): 36 % of control
T/C (dose: 40.0 mg/kg/injection, schedule: Q01DX010 (sc), vehicle: saline with Tween-80): 41 % of control

O=NN(CCCl)C(=O)NCCCl
T/C (dose: 12.0 mg/kg/injection, schedule: Q04DX003 (ip), vehicle: saline + alcohol): 60 % of control and 74 % of control
T/C (dose: 15.0 mg/kg/injection, schedule: Q04DX003 (sc), vehicle: Klucel (hydroxypropylcellulose) (HPC)): 30 % of control
T/C (dose: 18.0 mg/kg/injection, schedule: Q04DX003 (ip), vehicle: saline + alcohol): 27 % of control and 49 % of control
T/C (dose: 30.0 mg/kg/injection, schedule: Q04DX003 (sc), vehicle: Klucel (hydroxypropylcellulose) (HPC)): 1 % of control

O=NNc1cccnc1
T/C (dose: 25.0 mg/kg/injection, schedule: Q04DX003 (ip), vehicle: water): 103 % of control and 113 % of control
T/C (dose: 50.0 mg/kg/injection, schedule: Q04DX003 (ip), vehicle: water): 108 % of control
